pIC50: −log10 of the molar value. Read-outs that look alike come from different tables or passages of the source.
System: complex formed by the invertebrate L-quisqualate sub-type L-glutamate receptor and its ion channel
Design: species or system Schistocerca gregaria
Description: The compounds were assayed for biological activity on the isolated, retractor unguis nerve-muscle preparation of the locust Schistocerca gregaria (Usherwood, P.N.R and Machili, P. (1968) J. Exp. Biol., 49: 341.). Isolated muscle preparations were bathed continuously in standard locust saline in a bath of volume 250µl. Twitch tension recordings of the muscle were made to electrical stimulation of its motor innervation supramaximal voltage, frequency 0.1Hz).
The locust isolated retractor unguis nerve-muscle is a preparation with well characterised muscle receptors belonging to the quisqualate-sensitive class (Boden, P. et al., (1986) Brain Res., 385: 205.). This preparation has previously been employed to identify antogonists of excitatory amino acid receptors, (e.g. Bateman, A. et al., (1985) Brain Res., 339: 237 and Budd, T. et al., (1988) Brain Res., 448: 30.).
The potency of this monocylated spermine as an antagonist of the complex formed by the invertebrate L-quisqualate sub-type L-glutamate receptor and its ion channel was assayed using the electrically stimulated retractor unguis muscle of the locust (Schistocerca gregaria). Twitch amplitude was reduced (1% inhibition) from control (100%) levels at the following concentrations: […]

## NCCCNCCCCNCCCNC(=O)Cc1ccccc1O [Example 1, N-(2-Hydroxyphenylacetyl)-spermine]
1.5 x 10⁻⁴M
  inhibition of twitch: 85%
1.5 x 10⁻⁵M
  inhibition of twitch: 30%
3 x 10⁻⁴M
  inhibition of twitch: 90%
3 x 10⁻⁵M
  inhibition of twitch: 30%
3 x 10⁻⁶M
  inhibition of twitch: 20%
3 x 10⁻⁷M
  inhibition of twitch: 15%
3 x 10⁻⁸M
  inhibition of twitch: 10% inhibition of twitch

## NCCCNCCCCNCCCNC(=O)Cc1cccc(O)c1 [Example 2, N-(3-Hydroxyphenylacetyl)-spermine]
3 x 10⁻⁷M
  inhibition of twitch: 35%
3 x 10⁻⁸M
  inhibition of twitch: 30%

## NCCCNCCCCNCCCNC(=O)Cc1ccc(O)cc1 [Example 3, N-(4-Hydroxyphenylacetyl)-spermine]
2.95x 10⁻⁵M
  Twitch amplitude was reduced from control (100%) levels: 74%
4.43x 10⁻⁵M
  Twitch amplitude was reduced from control (100%) levels: 91%
5.9 x 10⁻⁵M
  Twitch amplitude was reduced from control (100%) levels: 96%
5.9 x 10⁻⁶M
  Twitch amplitude was reduced from control (100%) levels: 25%
5.9 x 10⁻⁷M
  Twitch amplitude was reduced from control (100%) levels: 9%

## NCCCNCCCCNCCCNC(=O)CCc1cccc(O)c1 [Example 5, N(3-Hydroxyphenylpropanoyl)-spermine]
1.08 x 10⁻⁶M
  inhibition of twitch: 15%
1.08 x 10⁻⁷M
  inhibition of twitch: 10%

## NCCCNCCCCNCCCNC(=O)C=Cc1ccc(O)cc1 [Example 6, N-(4-Hydroxycinnamoyl)-spermine]
10⁻¹⁰M
  Twitch amplitude was reduced from control (100%) levels: 4%
10⁻⁵M
  Twitch amplitude was reduced from control (100%) levels: 70%
10⁻⁶M
  Twitch amplitude was reduced from control (100%) levels: 56%
10⁻⁷M
  Twitch amplitude was reduced from control (100%) levels: 33%
10⁻⁸M
  Twitch amplitude was reduced from control (100%) levels: 24%
10⁻⁹M
  Twitch amplitude was reduced from control (100%) levels: 18%

## NCCCNCCCCNCCCNC(=O)Cc1cc(O)cc(O)c1 [Example 9, N-(3,5-Dihydroxyphenylacetyl)-spermine]
1 07 x 10⁻⁶M
  Twitch amplitude was reduced from control levels: 25%
1.07 x 10⁻⁵M
  Twitch amplitude was reduced from control levels: 45%

## NCCCNCCCCNCCCNC(=O)c1ccccc1O [Example 10]
1.09 x 10⁻⁵M
  Twitch amplitude was reduced from control level: approximately 25%

## NCCCNCCCCNCCCNC(=O)c1cccc(O)c1 [Example 11, N-(3-Hydroxybenzoyl)-spermine]
1.02 x 10⁻⁵M
  Twitch amplitude was reduced from control levels: approximately 40%

## NCCCNCCCCNCCCNC(=O)C=Cc1cccc(O)c1 [Example 13, N-(3-Hydroxycinnamoyl)-spermine]
9.2 x 10⁻⁷M
  Twitch amplitude was reduced from control levels: approximately 25%

## NCCCNCCCNCCCNC(=O)Cc1cccc(O)c1 [Example 20, N-(3-Hydroxyphenylacetyl)-N′,N˝-bis(3-aminopropyl)-1,3-propanediamine]
1.04 x 10⁻⁴M
  Twitch amplitude was reduced from control (100%) levels: approximately 60%

## NCCCNCCCNCCCNC(=O)Cc1ccc(O)cc1 [Example 21, N-(4-Hydroxyphenylacetyl)-N′,N˝-bis(3-aminopropyl)-1,3-propanediamine]
10⁻⁴M
  Twitch amplitude was reduced from control (100%) levels: approximately 30%

## NCCCNCCCCNCCCNC(=O)CCc1ccc(O)cc1 [Example 22, N-(4-Hydroxyphenylpropanoyl)-spermine]
1.45x 10^-5M
  Twitch amplitude was reduced from control levels: 38%
1.45x 10^-6M
  Twitch amplitude was reduced from control levels: 30%
2.9 x 10^-5M
  Twitch amplitude was reduced from control levels: 81%
2.9 x 10^-6M
  Twitch amplitude was reduced from control levels: 38%
2.9 x 10^-7M
  Twitch amplitude was reduced from control levels: 25%
2.9 x 10^-8M
  Twitch amplitude was reduced from control levels: 10%
7.25x 10^-5M
  Twitch amplitude was reduced from control levels: 100%
Reduction of twitch amplitude, retractor unguis muscle, read-out: IC₅₀
  pIC50: 5.22

Reference: EP0360437A1, “Biocidal polylamine-amides” (priority 1988, dated 1990)
